Reference: patent publication EP2246331A1, “NR2B-selective NMDA-receptor antagonists” (Westfälische Wilhelms-Universität Münster, priority 2009, dated 2010)
Read-outs that look alike come from different tables or passages of the source.

Experiments:
σ1 receptor = target: T1, σ1 receptor (Cavia porcellus, UniProt Q60492); test: Receptor binding assay with [3H]-(+)-pentazocine on guinea pig brain membranes; settings: for inhibition of the σ1 receptor only at concentrations above: given as above 1 µM or 10 µM
T1 construct: tissue Harlan Winkelmann; host or cells: guinea pig brain membranes
Protocol: (§1) The pig brains were a donation of the local slaughterhouse (Coesfeld, Germany). Homogenizer: Elvehjem Potter (B. Braun Biotech International, Melsungen, Germany). Centrifuge: High-speed cooling centrifuge model Sorvall RC-5C plus (Thermo Fisher Scientific, Langenselbold, Germany). Filter: Printed Filtermat Typ A and B (Perkin Elmer LAS, Rodgau-Jügesheim, Germany), presoaked in 0.5% aqueous polyethylenimine for 2 h at room temperature before use. […] Before filling to the final volume of 1000 mL, the pH of the solution was adjusted to pH=7.5 by dropwise addition of 1M HCl. The filtration was carried out with a MicroBeta FilterMate-96 Harvester (Perkin Elmer). The scintillation analysis was performed using Meltilex (Typ A or B) solid scintillator (Perkin Elmer). The solid scintillator was melted on the filtermat at a temperature of 95 °C for 5 minutes. After solidifying of the scintillator at room temperature, the scintillation was measured using a MicroBeta Trilux scintillation analyzer (Perkin Elmer). The overall counting efficiency was 20 %. All experiments were carried out in triplicates using standard 96-well-multiplates (Diagonal, Muenster, Germany). […] The Ki-values are given as mean value ± SEM from three independent experiments.
Determination of the affinity to the σ1 receptor
Five guinea pig brains (Harlan Winkelmann, Borchen, Germany) were homogenized with the potter (500-800 rpm, 10 up-and-down strokes) in 6 volumes of cold 0.32 M sucrose. The suspension was centrifuged at 1200 x g for 10 min at 4 °C. […] This procedure was repeated twice. The final pellet was resuspended in 5 to 6 volumes of buffer, the protein concentration was determined according to the method of Bradford using bovine serum albumin as standard, and subsequently the preparation was frozen (-80 °C) in 1.5 mL portions containing about 1.5 mg protein/mL.
The test was performed with the radioligand [^3H]-(+)-pentazocine (42,5 Ci/mmol; Perkin Elmer). […] The incubation was terminated by rapid filtration through the presoaked filtermats using a cell harvester. After washing each well five times with 300 µl of water, the filtermats were dried at 95 °C. The bound radioactivity trapped on the filters was counted in the scintillation analyzer as described in the "General procedures" section. The non-specific binding was determined with 10 µM unlabeled (+)-pentazocine.

[1] = target: T2, polyamine binding site of the NR2B subunit of the NMDA receptor (Homo sapiens, UniProt Q05586+Q13224); test: Filtration-based receptor binding assay with [3H]-Ifenprodil as radioligand; settings: 5 nM [3H]-Ifenprodil, membrane homogenates of mouse L(tk-) cells transfected with NR1-1a/NR2B, 180 min at 37 °C, read-out: affinity to the NR2B binding site of the NMDA receptor
T2 construct: expressed in transfected cells; host or cells: mouse L(tk-) cells, dexamethasone-induced; gift from D. Steinhilber, University of Frankfurt
Protocol: Mouse L(tk-) cells stably transfected with the dexamethasone-inducible eukaryotic expression vectors pMSG NR1-1a, pMSG NR2B in a 1:5 ratio were a generous gift from D. Steinhilber (Department of Pharmacy, University of Frankfurt, Germany). The transformed L(tk-) cells were grown in Modified Earl's Medium (MEM) containing 10% of standardized FCS (Biochrom AG, Berlin, Germany). The expression of the NMDA receptor at the cell surface was induced after the cell density of the adherent growing cells had reached approximately 90% of confluency. For the induction, the original growth medium was replaced by growth medium containing 4 µM dexamethasone and 4 µM ketamine (final concentration). After 24 h the cells were harvested by trypsination and pelleted (10 min, 5,000 x g, Hettich Rotina 35R centrifuge, Tuttlingen, Germany).
For the binding assay, the cell pellet was resuspended in PBS buffer and the number of cells was determined using an improved Neubauer's counting chamber (VWR, Darmstadt, Germany). Subsequently, the cells were lysed by sonication (4 °C, 6 x 10 s cycles with breaks of 10 sec). The resulting cell fragments were centrifuged with a high performance cool centrifuge (20,000 x g, 4 °C, Sorvall RC-5 plus, Thermo Scientific). The supernatant was discarded and the pellet resuspended in a defined volume of phosphate buffer saline (PBS) yielding cell fragments of approximately 500,000 cells/mL. The suspension of membrane homogenates was sonicated again (4 °C, 2 x 10 s cycles with a break of 10 min) and stored at -80 °C.
The cell membrane suspension was added last. All experiments were carried out in triplicates. The incubation was terminated by rapid filtration through filtermats using a cell harvester (MicroBeta FilterMate-96 Harvester, Perkin Elmer). Prior to harvesting, the filtermats were presoaked in 0.5% aqueous polyethylenimine for 2 h at room temperature. After washing each well five times with 300 µL of water, the filtermats were dried at 95 °C. Subsequently, the solid scintillator was placed on the filtermat and melted at 95 °C. After 5 min, the solid scintillator was allowed to solidify at room temperature. The bound radioactivity trapped on the filters was counted in the scintillation analyzer (Microbeta Counter, Perkin Elmer). The overall counting efficiency was 20%.
The protein concentration was determined by the method of Bradford, modified by Stoscheck. The Bradford solution was prepared by dissolving 5 mg of Coomassie Brilliant Blue G 250 in 2.5 mL EtOH (95%, v/v). 10 mL deionized H2O and 5 mL phosphoric acid (85%, m/v) were added to this solution, the mixture was stirred and filled up to a total volume of 50.0 mL with deionized water. The calibration was carried out using bovine serum protein as a standard in concentrations between 0.1 and 10 mg /L. In a 96-well standard multiplate, 10 µL of the calibration solution or 10 µL of the membrane receptor preparation were mixed with 190 µL of the Bradford solution, respectively.
Kd and Bmax were calculated as described in the "Data analysis" section.
Data analysis was performed with Graph Pad Prism® Software, Version 3.0 (Graph Pad Software Inc., San Diego, CA, USA).
Saturation analyses were made by nonlinear regression using the "one-site-saturation" calculation method. The IC50 values of the test compounds used in the competitive binding experiments were determined by nonlinear regression using the "one-site-competition" calculation method. […] The Ki values are given as mean values from three independent experiments ± Standard Error of the Mean (S.E.M).

σ2 receptor = target: T3, σ2 receptor (Rattus norvegicus, UniProt Q5U3Y7); test: Receptor binding assay with [3H]-ditolylguanidine on rat liver membranes; settings: for Ki: read-out: affinity to the σ2 receptor
T3 construct: tissue Harlan Winkelmann; host or cells: rat liver membranes
T3 sequence (Q5U3Y7 1-176): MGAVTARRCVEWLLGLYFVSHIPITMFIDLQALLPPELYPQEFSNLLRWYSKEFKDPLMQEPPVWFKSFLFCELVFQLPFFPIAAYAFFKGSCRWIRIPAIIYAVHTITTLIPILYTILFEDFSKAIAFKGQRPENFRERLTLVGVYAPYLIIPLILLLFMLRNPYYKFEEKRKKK
Protocol: as §1
Determination of affinity to the σ2 receptor
Two rat livers (Harlan Winkelmann, Borchen, Germany) were cut into smaller pieces and homogenized with the potter (500-800 rpm, 10 up-and-down strokes) in 6 volumes of cold 0.32 M sucrose. The suspension was centrifuged at 1200 x g for 10 min at 4 °C. The supernatant was separated and centrifuged at 31000 x g for 20 min at 4 °C. The pellet was resuspended in 5-6 volumes of buffer (50 mM TRIS, pH 8.0) and incubated at room temperature for 30 minutes. After the incubation, the suspension was centrifuged again at 31000 x g for 20 min at 4 °C. The final pellet was resuspended in 5 to 6 volumes of buffer, the protein concentration was determined according to the method of Bradford using bovine serum albumin as standard, and subsequently the preparation was frozen (-80 °C) in 1.5 mL portions containing about 2 mg protein/mL.
(50 Ci/mmol; ARC). […] The incubation was terminated by rapid filtration through the presoaked filtermats using a cell harvester. After washing each well five times with 300 µL of water, the filtermats were dried at 95 °C. Subsequently, the solid scintillator was placed on the filtermat and melted at 95 °C. The bound radioactivity trapped on the filters was counted in the scintillation analyzer as described in the "General procedures" section.

[2] = 2 nM [3H]-(+)-pentazocine, guinea pig brain membranes
[3] = Ki mean of three experiments ± S.E.M.
[4] = 3 nM [3H]-ditolylguanidine with 2 µM (+)-pentazocine
[5] = 3 nM [3H]-ditolylguanidine with 2 µM (+)-pentazocine, 180 min at room temperature, mean ± SEM
[6] = 2 nM [3H]-(+)-pentazocine, guinea pig brain membranes, 180 min at 37 °C, mean ± SEM, read-out: affinity to the σ1 receptor
[7] = 3 nM [3H]-ditolylguanidine with 2 µM (+)-pentazocine, values given in µM

T2 sequence (Q13224 27-1484, other chains not shown): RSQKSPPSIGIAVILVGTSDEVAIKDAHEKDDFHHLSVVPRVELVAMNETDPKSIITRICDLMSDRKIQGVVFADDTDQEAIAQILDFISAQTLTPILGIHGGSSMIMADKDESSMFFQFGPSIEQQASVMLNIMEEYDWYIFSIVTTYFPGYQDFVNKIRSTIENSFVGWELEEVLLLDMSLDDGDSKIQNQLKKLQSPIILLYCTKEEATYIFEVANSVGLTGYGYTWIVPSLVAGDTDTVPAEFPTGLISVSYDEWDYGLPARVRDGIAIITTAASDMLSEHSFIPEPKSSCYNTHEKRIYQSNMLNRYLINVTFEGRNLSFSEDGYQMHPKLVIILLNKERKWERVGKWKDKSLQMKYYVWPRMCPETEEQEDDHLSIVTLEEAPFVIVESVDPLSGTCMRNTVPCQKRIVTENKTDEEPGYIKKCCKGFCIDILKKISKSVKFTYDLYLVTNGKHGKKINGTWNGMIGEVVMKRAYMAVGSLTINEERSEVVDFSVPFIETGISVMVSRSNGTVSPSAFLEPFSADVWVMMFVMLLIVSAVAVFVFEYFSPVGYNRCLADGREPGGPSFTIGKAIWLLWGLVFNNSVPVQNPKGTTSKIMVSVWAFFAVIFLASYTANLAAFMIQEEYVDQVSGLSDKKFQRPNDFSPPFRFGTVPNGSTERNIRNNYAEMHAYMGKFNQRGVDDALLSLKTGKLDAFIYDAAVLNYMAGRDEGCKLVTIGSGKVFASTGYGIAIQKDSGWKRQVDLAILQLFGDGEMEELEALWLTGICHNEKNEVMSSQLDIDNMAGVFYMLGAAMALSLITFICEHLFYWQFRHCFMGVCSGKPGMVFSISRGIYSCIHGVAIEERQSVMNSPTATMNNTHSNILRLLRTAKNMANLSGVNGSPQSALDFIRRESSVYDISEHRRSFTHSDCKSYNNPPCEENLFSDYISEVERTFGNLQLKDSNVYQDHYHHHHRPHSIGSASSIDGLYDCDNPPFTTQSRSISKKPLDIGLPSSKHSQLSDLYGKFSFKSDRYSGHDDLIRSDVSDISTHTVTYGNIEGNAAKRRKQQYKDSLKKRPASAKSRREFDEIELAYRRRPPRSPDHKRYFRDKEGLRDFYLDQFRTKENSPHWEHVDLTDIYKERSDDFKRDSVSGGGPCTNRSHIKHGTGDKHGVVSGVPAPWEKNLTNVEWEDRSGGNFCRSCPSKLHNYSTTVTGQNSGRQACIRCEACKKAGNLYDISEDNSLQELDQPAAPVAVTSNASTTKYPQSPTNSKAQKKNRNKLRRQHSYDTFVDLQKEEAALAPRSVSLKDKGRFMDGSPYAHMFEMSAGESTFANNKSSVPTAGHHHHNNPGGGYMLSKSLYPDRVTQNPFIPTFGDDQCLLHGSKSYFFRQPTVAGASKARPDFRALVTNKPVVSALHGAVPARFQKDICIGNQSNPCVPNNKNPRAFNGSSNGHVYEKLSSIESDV
T1 sequence (Q60492 whole entry): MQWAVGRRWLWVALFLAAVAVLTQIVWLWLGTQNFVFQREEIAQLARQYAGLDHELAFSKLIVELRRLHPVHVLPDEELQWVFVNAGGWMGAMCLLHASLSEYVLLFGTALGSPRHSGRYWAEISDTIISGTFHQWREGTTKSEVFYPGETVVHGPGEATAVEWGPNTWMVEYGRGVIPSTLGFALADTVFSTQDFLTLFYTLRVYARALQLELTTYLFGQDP

| SMILES | Ki [1, 3] | Ki (σ2 receptor; [5]) | Ki (σ1 receptor; [6]) | further results |
| --- | --- | --- | --- | --- |
| OC1CN([C@H]2CC[C@@H](c3ccccc3)CC2)CCc2cc(OCc3ccccc3)ccc21 (relative stereo) [formula (19)] | 0.156 µM | – | – | inhibition of the σ1 receptor only at concentrations above (σ1 receptor; [2]): above 1 µM; inhibition of the σ2 receptor only at concentrations above (σ2 receptor; [4]): above 1 µM |
| Oc1ccc2c(c1)CCN([C@H]1CC[C@@H](c3ccccc3)CC1)CC2O (relative stereo) [formula (21)] | 0.00486 µM | 0.00856 ± 0.00433 µM | – | – |
| Oc1ccc2c(c1)CCN([C@H]1CC[C@H](c3ccccc3)CC1)CC2O (relative stereo) [formula (23)] | 0.0342 µM | 0.00893 ± 0.00257 µM | 200 ± 62 nM | – |
| COc1ccc2c(c1)CCN(CCCCc1ccccc1)CC2O (stereo not shown) [formula (1)] | 0.00512 µM | 0.554 ± 0.221 µM | 182 ± 67 nM | – |
| CCCCCCCCN1CCc2cc(OC)ccc2C(O)C1 (stereo not shown) [formula (2)] | 0.591 ± 0.15 µM | 0.108 ± 0.09 µM | – | Ki (σ1 receptor): 44.6 ± 21.4 nM |
| COc1ccc2c(c1)CCN(C1CCC(c3ccccc3)CC1)CC2O (stereo not shown) [formula (3)] | 0.192 ± 0.026 µM | 0.0816 ± 0.0444 µM | 33.1 ± 29.8 nM | – |
| Oc1ccc2c(c1)CCN(CCCCc1ccccc1)CC2O (stereo not shown) [formula (4)] | 0.0153 ± 0.0012 µM | – | – | – |
| COc1ccc2c(c1)CCN(CCCCCc1ccccc1)CC2O (stereo not shown) [formula (5)] | 0.325 µM | 0.305 µM | 65.3 ± 12.3 nM | – |
| COc1ccc2c(c1)CCN(CCCC(=O)c1ccc(F)cc1)CC2O (stereo not shown) [formula (6)] | 0.258 µM | – | – | inhibition of the σ1 receptor only at concentrations above (σ1 receptor; [2]): above 1 µM; inhibition of the σ2 receptor only at concentrations above (σ2 receptor; [4]): above 1 µM |
| COc1ccc2c(c1)CCN(CCCCSc1ccccc1)CC2O (stereo not shown) [formula (7)] | – | 0.308 ± 0.116 µM | 94.7 ± 51 nM | Ki ([1]; values given in µM): 1.04 µM |
| COc1ccc2c(c1)CCN(CCCSc1ccccc1)CC2O (stereo not shown) [formula (8)] | – | – | 155 nM | Ki ([1]; values given in µM): 1.88 µM; Ki (σ2 receptor; [7]): 1.52 µM |
| OC1CN(CCCCc2ccccc2)CCc2cc(OCc3ccccc3)ccc21 (stereo not shown) [formula (9)] | 0.249 ± 0.063 µM | – | 293 ± 101 nM | Ki (σ2 receptor; [7]): 1.05 µM |
| O=S(=O)(CCCN1CCc2cc(OCc3ccccc3)ccc2C(O)C1)c1ccccc1 (stereo not shown) [formula (10)] | 0.0452 µM | – | 349 nM | Ki (σ2 receptor; [7]): 3.04 µM |
| COc1ccc2c(c1)CCN(CCCC1(c3ccc(F)cc3)OCC(C)(C)CO1)CC2O (stereo not shown) [formula (11)] | 0.107 µM | – | 45.6 nM | Ki (σ2 receptor; 3 nM [3H]-[…] with 2 µM (+)-pentazocine, 180 min at room temperature, mean ± SEM): 0.103 µM |
| OC1CN(CCCSc2ccccc2)CCc2cc(OCc3ccccc3)ccc21 (stereo not shown) [formula (12)] | 0.046 µM | 0.653 µM | 376 nM | – |
| CC(C)(C)c1ccc(C(=O)CCCN2CCc3cc(OCc4ccccc4)ccc3C(O)C2)cc1 (stereo not shown) [formula (13)] | 0.099 µM | – | 604 nM | Ki (σ2 receptor; [7]): 6.43 µM |
| COc1ccc2c(c1)CCN(CCCC(=O)c1ccc(C(C)(C)C)cc1)CC2O (stereo not shown) [formula (14)] | 0.0604 µM | 0.267 ± 0.055 µM | 44.3 ± 14.1 nM | – |
| CC1(C)COC(CCCN2CCc3cc(OCc4ccccc4)ccc3C(O)C2)(c2ccc(F)cc2)OC1 (stereo not shown) [formula (15)] | – | – | – | inhibition of the σ1 receptor only at concentrations above (σ1 receptor; [2]): above 1 µM; Ki ([1]; values given in µM): 1.24 µM; inhibition of the σ2 receptor only at concentrations above (σ2 receptor; [4]): above 1 µM |
| CN(Cc1ccccc1)C(=O)CN1CCc2cc(O)ccc2C(O)C1 (stereo not shown) [formula (16)] | – | – | 172 nM | Ki ([1]; values given in µM): 7.68 µM; Ki (σ2 receptor; [7]): 1.58 µM |
| COc1ccc2c(c1)CCN(CCCCc1ccccc1)[C@@H](C)[C@H]2O [formula (17)] | 0.209 µM | 0.00608 ± 0.00148 µM | 42.1 ± 9.9 nM | – |
| COc1ccc2c(c1)CCN(CCCCc1ccccc1)[C@H](C)[C@@H]2O [formula (18)] | 0.586 µM | 0.0185 ± 0.0042 µM | 3.21 ± 1.42 nM | – |
| OC1CN(C2CCC(c3ccccc3)CC2)CCc2cc(OCc3ccccc3)ccc21 (stereo not shown) [formula (20)] | – | 0.311 µM | 10.4 ± 1.4 nM | Ki ([1]; values given in µM): 2.51 µM |
| Oc1ccc2c(c1)CCN(CCCOc1ccccc1)CC2O (stereo not shown) [formula (22)] | 0.0234 µM | 0.00589 ± 0.00286 µM | 82.2 nM | – |
| C[C@H]1[C@H](O)c2ccc(O)cc2CCN1CCCCc1ccccc1 [formula (29)] | 0.171 µM | – | 40.8 nM | – |
| C[C@@H]1[C@@H](O)c2ccc(O)cc2CCN1CCCCc1ccccc1 [formula (30)] | 0.0164 µM | – | 846 nM | – |
